ChEMBL document CHEMBL4138083, “Design, synthesis and primary biological evaluation of the novel 2-pyridone derivatives as potent non-nucleoside HBV inhibitors” (Eur J Med Chem, 2017)

Legend:
[1] = Selectivity index, ratio of CC50 for human HepG2.2.15 cells to IC50 for Hepatitis B virus infected in human HepG2.2.15 cells assessed as inhibition of HBsAg secretion; assay type: toxicity, cell-based; settings: read-out: Ratio CC50/IC50
Hepatitis B virus [2] = test: Antiviral activity against Hepatitis B virus infected in human HepG2.2.15 cells assessed as inhibition of HBsAg secretion after 8 days by ELISA; assay type: functional, organism-based; settings: HepG2.2.15, 192 h
[3] = Selectivity index, ratio of CC50 for human HepG2.2.15 cells to IC50 for Hepatitis B virus infected in human HepG2.2.15 cells assessed as inhibition of HBeAg secretion; assay type: toxicity, cell-based; settings: read-out: Ratio CC50/IC50
Hepatitis B virus [4] = test: Antiviral activity against Hepatitis B virus infected in human HepG2.2.15 cells assessed as inhibition of HBeAg secretion after 8 days by ELISA; assay type: functional, organism-based; settings: HepG2.2.15, 192 h
[5] = Cytotoxicity against human HepG2.2.15 cells assessed as reduction in cell viability after 8 days by CCK-8 assay; assay type: cell-based, HepG2 2.2.15
Hepatitis B virus [6] = test: Antiviral activity against Hepatitis B virus infected in human HepG2.2.15 cells assessed as inhibition of viral DNA replication at 20 uM after 8 days by real time fluorescent PCR method relative to control; assay type: functional; settings: HepG2.2.15, 192 h
Hepatitis B virus [7] = test: Antiviral activity against Hepatitis B virus infected in human HepG2.2.15 cells assessed as inhibition of viral DNA replication at 4 uM after 8 days by real time fluorescent PCR method relative to control; assay type: functional; settings: HepG2.2.15, 192 h
Hepatitis B virus [8] = test: Antiviral activity against Hepatitis B virus infected in human HepG2.2.15 cells assessed as inhibition of viral DNA replication at 0.8 uM after 8 days by real time fluorescent PCR method relative to control; assay type: functional; settings: HepG2.2.15, 192 h
Hepatitis B virus [9] = test: Antiviral activity against Hepatitis B virus infected in human HepG2.2.15 cells assessed as inhibition of viral DNA replication at 0.16 uM after 8 days by real time fluorescent PCR method relative to control; assay type: functional; settings: HepG2.2.15, 192 h
Hepatitis B virus [10] = test: Antiviral activity against Hepatitis B virus infected in human HepG2.2.15 cells assessed as inhibition of viral DNA replication after 8 days by real time fluorescent PCR method; assay type: functional, organism-based; settings: HepG2.2.15, 192 h
Hepatitis B virus [11] = test: Antiviral activity against Hepatitis B virus assessed as inhibition of HBsAg secretion; assay type: functional, organism-based

IC50 (Hepatitis B virus [2]) [µM]	IC50 (Hepatitis B virus [4]) [µM]	IC50 (Hepatitis B virus [10]) [µM]	IC50 (Hepatitis B virus [11]) [µM]	SMILES	selectivity ratio [1]	selectivity ratio [3]	CC50 at 192 h [5] [µM]	inhibition at 20 µM (Hepatitis B virus [6]) [%]	inhibition at 4 µM (Hepatitis B virus [7]) [%]	inhibition at 0.8 µM (Hepatitis B virus [8]) [%]	inhibition at 0.16 µM (Hepatitis B virus [9]) [%]
79.4	76.9			COc1ccc(-c2cc(NC(=O)c3ccc(Cl)cc3O)c[nH]c2=O)cc1	0.64	0.66	50.5	22.9			
51.5	25.8			COc1ccc(C(=O)Nc2c[nH]c(=O)c(-c3cc(C)ccc3C)c2)c(O)c1	0.98	1.95	50.4	< 0			
49.1	51.2			CCOc1ccc(-c2cc(NC(=O)c3cc(OC)ccc3O)c[nH]c2=O)cc1	1.17	1.13	57.7	46			
26.4	26.8			Cc1cccc(-c2cc(NC(=O)c3ccc(C(F)(F)F)cc3O)c[nH]c2=O)c1	0.92	0.9	24.2	23.2			
89.9	23.6			COc1ccc(-c2cc(NC(=O)c3ccc(C)cc3O)c[nH]c2=O)cc1	0.51	1.96	46.1	58.1			
62	91.9			CCOc1ccc(-c2cc(NC(=O)c3ccc(C)cc3O)c[nH]c2=O)cc1	> 1.61	> 1.09	> 100	36.4			
65.8	32.3			Cc1cccc(-c2cc(NC(=O)c3ccc(F)cc3O)c[nH]c2=O)c1	0.57	1.15	37.2	37.6			
26.4	24.2			COc1ccc(C(=O)Nc2c[nH]c(=O)c(-c3ccc4c(c3)OCO4)c2)c(O)c1	0.95	1.04	25.2	51.9			
15.2	24.6			CCOc1ccc(-c2cc(NC(=O)c3ccccc3O)c[nH]c2=O)cc1	2.69	1.66	41	37.8			
39	22.4			Cc1cccc(-c2cc(NC(=O)c3ccc(Cl)cc3O)c[nH]c2=O)c1	0.85	1.48	33.1	26.5			
34.5	32.8			COc1ccc(-c2cc(NC(=O)c3cccc(OC)c3O)c[nH]c2=O)cc1	1.43	1.5	49.2	25.3			
23.2	22.8			CCOc1ccc(-c2cc(NC(=O)c3ccc(Cl)cc3O)c[nH]c2=O)cc1	1.23	1.25	28.6	21.9			
25.3	25.3			Cc1cc(C)cc(-c2cc(NC(=O)c3ccccc3O)c[nH]c2=O)c1	0.99	0.99	25.1	21.5			
26	17.5			COc1ccc(-c2cc(NC(=O)c3ccc(OC)cc3O)c[nH]c2=O)cc1	1.92	2.86	49.9	59.3			
52.2	31.6			COc1ccc(C(=O)Nc2c[nH]c(=O)c(-c3ccc(OC)c(F)c3)c2)c(O)c1	0.97	1.6	50.5				
44.1	41.4			CCOc1ccc(-c2cc(NC(=O)c3ccc(OC)cc3O)c[nH]c2=O)cc1	1.58	1.68	69.6	4.2			
94.7	> 100			COc1cccc(C(=O)Nc2c[nH]c(=O)c(-c3cccc(C)c3)c2)c1O	> 1.06		> 100				
30.5	41.3			CCOc1ccc(-c2cc(NC(=O)c3cccc(OC)c3O)c[nH]c2=O)cc1	1.13	0.83	34.5	24.9			
> 100	39.2			Cc1cccc(-c2cc(NC(=O)c3ccc(C)cc3O)c[nH]c2=O)c1	< 0.75	1.91	75				
> 100	44.6			COc1ccc(C(=O)Nc2c[nH]c(=O)c(-c3cccc(C)c3)c2)c(O)c1		> 2.24	> 100	60.9			
> 100	58.4			Cc1cccc(-c2cc(NC(=O)c3ccccc3O)c[nH]c2=O)c1	< 0.99	1.69	98.8	25.5			
23.7	24.1	3.4		CCOc1ccc(-c2cc(NC(=O)c3ccc(C(F)(F)F)cc3O)c[nH]c2=O)cc1	0.94	0.92	22.2	76.8	47.3	39.5	4.7
> 100	46.4			COc1ccc(-c2cc(NC(=O)c3ccccc3O)c[nH]c2=O)cc1		> 2.16	> 100	37.9			
32.4	33.2			COc1ccc(C(=O)Nc2c[nH]c(=O)c(-c3ccc(C)c(C)c3)c2)c(O)c1	0.97	0.94	31.3	< 0			
20.8	16.9			COc1ccc(O)c(C(=O)Nc2c[nH]c(=O)c(-c3cccc(C)c3)c2)c1	1.44	1.78	30.1	40.3			
28.4	60.6			CCOc1ccc(-c2cc(NC(=O)c3ccc(F)cc3O)c[nH]c2=O)cc1	1.81	0.85	51.5				
> 100	51.5			CCOc1ccc(-n2cc(C(=O)c3ccc(OC)cc3O)ccc2=O)cc1		> 1.94	> 100	53.3			
> 100	> 100	0.5		Nc1ccn([C@@H]2CS[C@H](CO)O2)c(=O)n1 [LAMIVUDINE]			> 100	81.9	80.8	56.2	37
			53.9	COc1c(O)cc2occ(-c3ccc(O)cc3)c(=O)c2c1O [TECTORIGENIN]							
